Converted amounts (≈) assume the structure as drawn. Where a SMILES comes first, the peptide text is derived from it.

Common to all, as to assay type: cell-based
In one assay the test system is E. coli JW0013. The conditions noted are these: JW0013, 1 h.
A further assay deals with E. coli J2210. Conditions: J2210, 1 h.
Assay [1] relates to Salmonella enterica serovar Enteritidis MH91989. Conditions: serovar Enteritidis MH91989, 1 h.
For assay [2], the system named is Salmonella enterica serovar Typhimurium ATCC SL1344. The conditions noted are these: ATCC SL1344, 1 h.
A further assay concerns E. coli JJ2489. The conditions noted are these: JJ2489, 1 h.

On to `CC(C)C[C@H](NC(=O)[C@H](CCCNC(=N)N)NC(=O)[C@@H]1CCCN1C(=O)[C@H](CCCNC(=N)N)NC(=O)[C@@H]1CCCN1C(=O)[C@@H]1CCCN1C(=O)[C@H](CCCNC(=N)N)NC(=O)[C@@H]1CCCN1C(=O)[C@H](CCC(N)=O)NC(=O)[C@@H]1CCCN1C(=O)[C@H](CCCCN)NC(=O)[C@H](Cc1ccc(O)cc1)NC(=O)[C@@H](NC(=O)[C@@H]1CCCN1C(=O)[C@H](CCCNC(=N)N)NC(=O)[C@H](CC(N)=O)NC(=O)[C@H](CC(N)=O)NC(=O)CN)C(C)C)C(=O)O` [Api_I8K/H15R] (H-GNNRPVYKPQPRPPRPRL-OH), for which the MIC stood at 0.062 ± 0.027 µM (≈ 0.133 µg/mL) in the assay on E. coli JW0013, 0.252 ± 0.087 µM (≈ 0.54 µg/mL) against E. coli J2210, 0.096 ± 0.023 µM (≈ 0.206 µg/mL) in assay [1] and 0.192 ± 0.044 µM (≈ 0.411 µg/mL) in assay [2].
With `CC(C)C[C@H](NC(=O)[C@H](CCCNC(=N)N)NC(=O)[C@@H]1CCCN1C(=O)[C@H](CCCNC(=N)N)NC(=O)[C@@H]1CCCN1C(=O)[C@@H]1CCCN1C(=O)[C@H](CCCNC(=N)N)NC(=O)[C@@H]1CCCN1C(=O)[C@H](CCC(N)=O)NC(=O)[C@@H]1CCCN1C(=O)[C@H](CCCNC(=N)N)NC(=O)[C@H](Cc1ccc(O)cc1)NC(=O)[C@@H](NC(=O)[C@@H]1CCCN1C(=O)[C@H](CCCNC(=N)N)NC(=O)[C@H](CC(N)=O)NC(=O)[C@H](CC(N)=O)NC(=O)CN)C(C)C)C(=O)O` [Api_I8R/H15R] (H-GNNRPVYRPQPRPPRPRL-OH), the MIC turned out to be 0.048 ± 0.011 µM (≈ 0.104 µg/mL) against E. coli JW0013 and 0.067 ± 0.033 µM (≈ 0.145 µg/mL) in assay [1].
With `CC(C)C[C@H](NC(=O)[C@H](CCCNC(=N)N)NC(=O)[C@@H]1CCCN1C(=O)[C@H](CCCNC(=N)N)NC(=O)[C@@H]1CCCN1C(=O)[C@@H]1CCCN1C(=O)[C@H](CCCNC(=N)N)NC(=O)[C@@H]1CCCN1C(=O)[C@H](CCC(N)=O)NC(=O)[C@@H]1CCCN1C(=O)[C@H](CCCCN)NC(=O)[C@H](Cc1ccc(O)cc1)NC(=O)[C@@H](NC(=O)[C@@H]1CCCN1C(=O)[C@H](CCCCN)NC(=O)[C@H](CC(N)=O)NC(=O)[C@H](CC(N)=O)NC(=O)CN)C(C)C)C(=O)O` [Api_R4K/I8K/H15R] (H-GNNKPVYKPQPRPPRPRL-OH), the MIC in the assay with E. coli JW0013 worked out at 0.096 ± 0.023 µM (≈ 0.203 µg/mL); in the assay on E. coli J2210 it was 0.267 ± 0.097 µM (≈ 0.565 µg/mL); in the assay on E. coli JJ2489 it was 0.252 ± 0.087 µM (≈ 0.533 µg/mL); in assay [1] it was 0.133 ± 0.061 µM (≈ 0.281 µg/mL).
With `CC(C)C[C@H](NC(=O)[C@H](CCCNC(=N)N)NC(=O)[C@@H]1CCCN1C(=O)[C@H](CCCNC(=N)N)NC(=O)[C@@H]1CCCN1C(=O)[C@@H]1CCCN1C(=O)[C@H](CCCNC(=N)N)NC(=O)[C@@H]1CCCN1C(=O)[C@H](CCC(N)=O)NC(=O)[C@@H]1CCCN1C(=O)[C@H](CCCNC(=N)N)NC(=O)[C@H](Cc1ccc(O)cc1)NC(=O)[C@@H](NC(=O)[C@@H]1CCCN1C(=O)[C@H](CCCCN)NC(=O)[C@H](CC(N)=O)NC(=O)[C@H](CC(N)=O)NC(=O)CN)C(C)C)C(=O)O` [Api_R4K/I8R/H15R] (H-GNNKPVYRPQPRPPRPRL-OH), the MIC in the assay on E. coli J2210 stood at 0.252 ± 0.087 µM (≈ 0.54 µg/mL); in the assay with E. coli JJ2489, 0.133 ± 0.061 µM (≈ 0.285 µg/mL); in assay [1], 0.096 ± 0.023 µM (≈ 0.206 µg/mL).
In the case of `CC[C@H](C)[C@H](NC(=O)[C@H](CCCNC(=N)N)NC(=O)[C@@H](N)CCCNC(=N)N)C(=O)N[C@@H](CCCNC(=N)N)C(=O)N1CCC[C@H]1C(=O)N[C@@H](CCCNC(=N)N)C(=O)N1CCC[C@H]1C(=O)N1CCC[C@H]1C(=O)N[C@@H](CCCNC(=N)N)C(=O)N[C@@H](CC(C)C)C(=O)N1CCC[C@H]1C(=O)N[C@@H](CCCNC(=N)N)C(=O)N1CCC[C@H]1C(=O)N[C@@H](CCCNC(=N)N)C(=O)N1CCC[C@H]1C(=O)N[C@@H](CCCNC(=N)N)C(=O)O` [Bac_WT, reference compound] (H-RRIRPRPPRLPRPRPR-OH), the MIC in the assay with E. coli J2210 was found to be 0.120 ± 0.028 µM (≈ 0.249 µg/mL); against E. coli JJ2489, 0.120 ± 0.028 µM (≈ 0.249 µg/mL); in assay [1], 0.120 ± 0.028 µM (≈ 0.249 µg/mL); in assay [2], 0.060 ± 0.014 µM (≈ 0.125 µg/mL).
